Key:
[1] = molecular target: T1, Muscarinic acetylcholine receptor (Homo sapiens) (UniProt P20309+P08173+P11229+P08172+P08912); experiment: Inhibition of non selective binding to muscarinic receptor at 1 nM; type: protein assay
[2] = molecular target: T1, Muscarinic acetylcholine receptor (Homo sapiens); experiment: Inhibition of non selective binding to muscarinic receptor at 10 uM; type: protein assay
[3] = molecular target: T2, monoamine oxidase A (MAO-A) (Rattus norvegicus, UniProt P21396); experiment: Inhibition of monoamine oxidase A in rat brain at 100 nM; type: tissue-based
T2 sequence (P21396 whole entry): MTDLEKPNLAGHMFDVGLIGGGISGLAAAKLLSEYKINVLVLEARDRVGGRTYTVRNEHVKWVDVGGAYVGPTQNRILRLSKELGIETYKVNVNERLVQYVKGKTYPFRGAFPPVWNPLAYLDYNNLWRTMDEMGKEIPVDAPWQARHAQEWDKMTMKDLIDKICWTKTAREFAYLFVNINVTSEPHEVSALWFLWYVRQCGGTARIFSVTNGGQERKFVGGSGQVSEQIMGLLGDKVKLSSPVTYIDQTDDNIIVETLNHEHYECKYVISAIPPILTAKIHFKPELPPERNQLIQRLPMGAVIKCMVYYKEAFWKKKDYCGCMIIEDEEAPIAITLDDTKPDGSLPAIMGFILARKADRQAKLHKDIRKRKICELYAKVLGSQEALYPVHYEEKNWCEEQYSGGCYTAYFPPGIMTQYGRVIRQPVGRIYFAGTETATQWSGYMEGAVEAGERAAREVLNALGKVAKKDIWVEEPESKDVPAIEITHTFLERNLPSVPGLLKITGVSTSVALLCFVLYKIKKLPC

[4] = molecular target: T3, monoamine oxidase B (MAO-B) (Rattus norvegicus, UniProt P19643); experiment: Inhibition of monoamine oxidase B in rat brain at 1 nM; type: tissue-based
T3 sequence (P19643 whole entry): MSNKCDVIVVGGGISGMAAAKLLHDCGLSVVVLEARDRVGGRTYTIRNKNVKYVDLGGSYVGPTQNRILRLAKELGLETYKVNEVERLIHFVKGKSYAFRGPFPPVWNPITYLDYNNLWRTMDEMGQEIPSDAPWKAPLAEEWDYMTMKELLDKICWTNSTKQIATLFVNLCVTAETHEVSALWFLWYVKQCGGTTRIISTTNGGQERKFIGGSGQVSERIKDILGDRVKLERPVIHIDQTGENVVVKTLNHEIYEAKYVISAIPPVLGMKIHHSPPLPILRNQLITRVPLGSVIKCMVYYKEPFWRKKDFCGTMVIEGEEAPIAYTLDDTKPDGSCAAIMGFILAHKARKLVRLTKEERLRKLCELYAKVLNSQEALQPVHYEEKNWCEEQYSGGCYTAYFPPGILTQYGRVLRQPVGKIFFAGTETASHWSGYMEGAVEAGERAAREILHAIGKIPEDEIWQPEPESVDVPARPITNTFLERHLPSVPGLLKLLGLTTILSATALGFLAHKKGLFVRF

[5] = molecular target: T3, monoamine oxidase B (MAO-B); experiment: Inhibition of monoamine oxidase B in rat brain at 100 nM; type: tissue-based
[6] = molecular target: Estrogen receptor (Homo sapiens) (UniProt Q92731+P03372); experiment: Inhibition of estrogen receptor at 1 nM; type: protein assay
[7] = molecular target: Voltage-dependent N-type calcium channel subunit alpha-1B (Homo sapiens) (UniProt Q00975); experiment: Inhibitory activity at Calcium channel N type at 10 uM
[8] = molecular target: 5-hydroxytryptamine receptor 2A (Homo sapiens, UniProt P28223); type: cell-based, CHO
[9] = molecular target: T4, Type-1 angiotensin II receptor (Homo sapiens) (UniProt P30556); experiment: Inhibition of type 1 angiotensin 2 receptor at 10 uM
T4 sequence (whole entry): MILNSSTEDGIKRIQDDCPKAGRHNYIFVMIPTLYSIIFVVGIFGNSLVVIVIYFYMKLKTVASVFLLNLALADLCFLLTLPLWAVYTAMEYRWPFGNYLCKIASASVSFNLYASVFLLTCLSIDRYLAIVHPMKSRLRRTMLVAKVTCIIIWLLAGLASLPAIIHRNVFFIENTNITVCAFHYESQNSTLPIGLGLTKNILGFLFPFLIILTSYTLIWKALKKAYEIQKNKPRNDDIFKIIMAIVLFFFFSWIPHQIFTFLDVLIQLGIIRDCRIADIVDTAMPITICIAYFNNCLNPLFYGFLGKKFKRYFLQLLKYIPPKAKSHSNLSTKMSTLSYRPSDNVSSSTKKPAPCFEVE

[10] = molecular target: T5, Alpha-2C adrenergic receptor (Homo sapiens, UniProt P18825); experiment: Displacement of [3H]clonidine from cloned human adrenergic Alpha-2C receptor expressed in Sf9 cells
T5 sequence (P18825 whole entry): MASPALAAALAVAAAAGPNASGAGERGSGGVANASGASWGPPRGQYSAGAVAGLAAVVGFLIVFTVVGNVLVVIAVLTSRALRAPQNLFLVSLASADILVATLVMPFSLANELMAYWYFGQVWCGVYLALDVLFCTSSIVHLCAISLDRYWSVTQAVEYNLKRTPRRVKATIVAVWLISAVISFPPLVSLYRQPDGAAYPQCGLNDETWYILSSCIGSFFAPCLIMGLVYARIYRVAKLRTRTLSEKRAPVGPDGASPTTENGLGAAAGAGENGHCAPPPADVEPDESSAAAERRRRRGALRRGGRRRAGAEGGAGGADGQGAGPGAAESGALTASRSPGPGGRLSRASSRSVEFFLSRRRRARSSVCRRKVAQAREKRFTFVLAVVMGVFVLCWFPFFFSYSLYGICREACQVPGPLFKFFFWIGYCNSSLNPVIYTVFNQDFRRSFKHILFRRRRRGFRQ

[11] = molecular target: T6, 5-hydroxytryptamine receptor 2C (Rattus norvegicus) (UniProt P08909); experiment: Activity against recombinant rat 5HT2C mediated intracellular calcium mobilization by FLIPR in SR3T3 cells
T6 sequence (whole entry): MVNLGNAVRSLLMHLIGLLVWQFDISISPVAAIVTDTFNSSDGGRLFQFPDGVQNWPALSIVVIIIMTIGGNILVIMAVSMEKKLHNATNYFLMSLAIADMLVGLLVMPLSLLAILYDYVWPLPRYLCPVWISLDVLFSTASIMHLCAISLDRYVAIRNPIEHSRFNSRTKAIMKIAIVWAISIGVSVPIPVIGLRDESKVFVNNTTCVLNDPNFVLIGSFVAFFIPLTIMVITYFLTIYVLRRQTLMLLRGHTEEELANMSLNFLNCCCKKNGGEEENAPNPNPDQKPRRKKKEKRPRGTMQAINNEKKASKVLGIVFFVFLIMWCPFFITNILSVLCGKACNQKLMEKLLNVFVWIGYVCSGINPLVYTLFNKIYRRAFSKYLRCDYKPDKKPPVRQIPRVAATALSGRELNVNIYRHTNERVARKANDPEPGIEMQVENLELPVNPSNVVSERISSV

Voltage-dependent N-type calcium channel subunit alpha-1B (Homo sapiens), sequence (Q00975 whole entry, looked up): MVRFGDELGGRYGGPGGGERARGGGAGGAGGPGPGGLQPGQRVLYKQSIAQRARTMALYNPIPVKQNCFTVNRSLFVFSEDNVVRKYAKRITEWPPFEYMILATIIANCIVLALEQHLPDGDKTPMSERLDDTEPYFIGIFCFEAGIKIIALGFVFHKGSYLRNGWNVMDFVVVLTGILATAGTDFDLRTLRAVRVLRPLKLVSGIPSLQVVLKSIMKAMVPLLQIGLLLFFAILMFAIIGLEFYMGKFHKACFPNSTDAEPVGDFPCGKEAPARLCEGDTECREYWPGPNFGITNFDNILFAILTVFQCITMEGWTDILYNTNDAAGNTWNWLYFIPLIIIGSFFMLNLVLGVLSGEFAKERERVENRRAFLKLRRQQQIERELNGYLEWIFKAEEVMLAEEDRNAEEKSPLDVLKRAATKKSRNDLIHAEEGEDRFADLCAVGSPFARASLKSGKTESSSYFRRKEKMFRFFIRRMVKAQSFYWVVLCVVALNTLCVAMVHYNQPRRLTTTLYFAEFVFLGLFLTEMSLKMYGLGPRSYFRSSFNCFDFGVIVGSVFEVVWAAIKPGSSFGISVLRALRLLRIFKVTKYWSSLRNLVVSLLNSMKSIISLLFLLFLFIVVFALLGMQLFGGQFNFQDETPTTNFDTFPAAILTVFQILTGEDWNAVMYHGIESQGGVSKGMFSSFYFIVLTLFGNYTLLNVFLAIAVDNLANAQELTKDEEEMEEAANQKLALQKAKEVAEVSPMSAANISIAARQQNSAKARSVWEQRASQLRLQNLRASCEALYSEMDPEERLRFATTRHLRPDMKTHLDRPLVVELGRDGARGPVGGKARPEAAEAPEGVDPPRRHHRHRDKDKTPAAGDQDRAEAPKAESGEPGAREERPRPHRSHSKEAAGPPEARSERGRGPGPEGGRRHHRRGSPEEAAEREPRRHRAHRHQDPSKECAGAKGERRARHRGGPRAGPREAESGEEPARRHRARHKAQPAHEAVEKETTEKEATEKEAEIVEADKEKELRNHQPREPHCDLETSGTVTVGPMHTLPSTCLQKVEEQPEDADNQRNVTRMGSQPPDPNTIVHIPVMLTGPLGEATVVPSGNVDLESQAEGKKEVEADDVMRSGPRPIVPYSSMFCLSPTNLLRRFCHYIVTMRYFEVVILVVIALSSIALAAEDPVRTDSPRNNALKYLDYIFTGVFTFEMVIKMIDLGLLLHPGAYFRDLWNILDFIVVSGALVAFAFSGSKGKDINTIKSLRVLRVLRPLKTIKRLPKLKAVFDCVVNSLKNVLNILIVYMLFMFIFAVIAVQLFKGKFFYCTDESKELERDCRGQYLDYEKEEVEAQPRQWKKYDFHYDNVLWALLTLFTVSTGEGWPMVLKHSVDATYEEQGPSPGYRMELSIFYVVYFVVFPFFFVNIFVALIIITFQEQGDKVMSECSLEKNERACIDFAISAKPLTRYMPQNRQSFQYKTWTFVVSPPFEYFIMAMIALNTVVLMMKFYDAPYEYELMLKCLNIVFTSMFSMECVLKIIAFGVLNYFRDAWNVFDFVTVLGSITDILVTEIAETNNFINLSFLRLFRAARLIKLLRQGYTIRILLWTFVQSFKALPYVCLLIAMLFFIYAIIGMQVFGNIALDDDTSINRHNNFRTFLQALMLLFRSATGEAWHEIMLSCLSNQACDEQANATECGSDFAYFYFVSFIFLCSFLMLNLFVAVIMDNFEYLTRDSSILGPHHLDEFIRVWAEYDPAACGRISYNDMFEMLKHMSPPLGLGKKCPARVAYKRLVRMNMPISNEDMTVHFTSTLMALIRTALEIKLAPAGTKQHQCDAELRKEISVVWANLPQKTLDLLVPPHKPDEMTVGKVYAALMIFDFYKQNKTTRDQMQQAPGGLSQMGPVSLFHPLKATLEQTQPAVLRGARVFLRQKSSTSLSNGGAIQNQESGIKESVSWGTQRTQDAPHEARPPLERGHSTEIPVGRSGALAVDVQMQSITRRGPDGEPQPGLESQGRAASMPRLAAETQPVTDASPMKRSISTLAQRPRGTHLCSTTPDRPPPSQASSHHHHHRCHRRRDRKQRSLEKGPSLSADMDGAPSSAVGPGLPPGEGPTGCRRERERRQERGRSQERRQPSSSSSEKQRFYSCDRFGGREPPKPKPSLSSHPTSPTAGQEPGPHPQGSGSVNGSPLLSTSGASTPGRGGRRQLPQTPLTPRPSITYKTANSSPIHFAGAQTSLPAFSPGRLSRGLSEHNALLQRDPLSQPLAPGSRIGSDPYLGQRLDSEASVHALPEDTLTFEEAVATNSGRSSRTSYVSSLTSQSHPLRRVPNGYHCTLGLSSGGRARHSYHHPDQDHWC
5-hydroxytryptamine receptor 2A, sequence (P28223 whole entry): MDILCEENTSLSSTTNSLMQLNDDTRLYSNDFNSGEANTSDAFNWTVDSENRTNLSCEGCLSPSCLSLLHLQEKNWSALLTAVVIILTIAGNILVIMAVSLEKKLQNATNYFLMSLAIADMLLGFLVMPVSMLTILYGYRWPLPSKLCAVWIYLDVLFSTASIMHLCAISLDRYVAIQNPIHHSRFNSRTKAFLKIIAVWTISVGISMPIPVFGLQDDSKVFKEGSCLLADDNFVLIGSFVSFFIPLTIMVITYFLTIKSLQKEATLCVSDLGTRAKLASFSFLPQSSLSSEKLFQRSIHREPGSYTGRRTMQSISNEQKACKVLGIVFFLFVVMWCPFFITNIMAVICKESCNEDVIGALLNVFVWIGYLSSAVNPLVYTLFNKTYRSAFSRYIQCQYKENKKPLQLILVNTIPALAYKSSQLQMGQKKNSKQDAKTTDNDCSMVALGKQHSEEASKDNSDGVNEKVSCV

C[C@H](N)Cn1ncc2ccc(O)cc21
inhibition [1]: -0.51%
inhibition [2]: 12.2%
inhibition at 0.1 µM [3]: -22.3%
inhibition at 0.001 µM [4]: -15.4%
inhibition at 0.1 µM [5]: -20%
inhibition [6]: 10.8%
inhibition [7]: 15.4%
Ki [8]: 12 nM
inhibition [9]: 6.55%
Ki [10]: 4.7 µM
Emax [11]: 89%

Source: ChEMBL document CHEMBL1148572, “1-((S)-2-aminopropyl)-1H-indazol-6-ol: a potent peripherally acting 5-HT2 receptor agonist with ocular hypotensive activity” (J Med Chem, 2006)
